Columns and labels:
Type in all cases: in vivo
[1] = test system: Lolium multiflorum; test: Field trial with cereal (wheat), herbicidal action; conditions: for Herbicidal action (%) against Lolium multiflorum: scoring 27 days after application
Procedure: (§1) Transgenic cereal plants with a resistance to one or more herbicides (A) together with typical weed plants were grown in the open on 2×5 m plots under natural field conditions; alternatively, weed infestation occurred naturally when the cereal plants were grown.
(§2) […] The damage to, and the development of, all aerial parts of the plants was recorded. Scoring was done on the basis of a percentage sale (100% action=all plants destroyed; 50% action=50% of the plants and green parts of the plants destroyed; 0% action=no recognizable effect=like control plot. The mean of the score values of in each case 4 plots was calculated.

[2] = test system: Galium aparine; test: Field trial with cereal (wheat), herbicidal action; conditions: application at 4-leaf stage, scoring 28 days after application
Procedure: as §1
(§3) 2, 4, 6 and 8 weeks after the application, the herbicidal activity of the active substances or active substance mixtures was scored visually with reference to the treated plots in comparison to untreated control plots. The damage to, and the development of, all aerial parts of the plants was recorded. Scoring was done on the basis of a percentage sale (100% action=all plants destroyed; 50% action=50% of the plants and green parts of the plants destroyed; 0% action=no recognizable effect=like control plot. The mean of the score values of in each case 4 plots was calculated.

[3] = test system: Lamium purpureum; test: Field trial with cereal (wheat), herbicidal action; conditions: application at 4-leaf stage, scoring 28 days after application
Procedure: as §1, §3

[4] = test system: Ambrosia maritima; test: Field trial with cereal (wheat), herbicidal action; conditions: application at start of stocking, scoring 11 days after application
Procedure: as §1, §2

[5] = test system: Digitaria Sanguinalis; test: Field trial with cereals (wheat), herbicidal action; conditions: application at start of stocking, scoring 3 weeks after application
Procedure: as §1, §2

[6] = test system: Alopecurus myosuroides; test: as above; conditions: application at start of stocking, scoring 3 weeks after application
Procedure: as §1, §2

[7] = Lolium multiflorum, read-out: Herbicidal action (%) against Lolium multiflorum

SMILES: CCS(=O)(=O)c1nc2ccccn2c1S(=O)(=O)NC(=O)Nc1nc(OC)cc(OC)n1 [(B2.6), sulfosulfuron]
- pest or weed control at 20 g/ha ([1]; Lolium multiflorum, wheat field trial, 20 g of a.s./ha, application at 3-leaf stage, scoring after application, read-out: Herbicidal action (%) against Lolium multiflorum): 35%

SMILES: COc1cc(OC)nc(NC(=O)NS(=O)(=O)N(C)S(C)(=O)=O)n1 [(B4.1.2), amidosulfuron]
- Herbicidal action (%) against Galium aparine ([2]; 20 g of a.s./ha): 75%

SMILES: COc1cc(OC)nc(NC(=O)NS(=O)(=O)c2nc(C(F)(F)F)ccc2C(=O)O)n1 [(B1.2.6), flupyrsulfuron]
- pest or weed control at 7.5 g/ha [1, 7]: 25%

SMILES: COC(=O)C(C)Oc1ccc(Oc2ccc(Cl)cc2Cl)cc1 (centres unmarked) [(B1.2.3), diclofop-methyl]
- Herbicidal action (%) against Lolium multiflorum ([1]; wheat field trial, 500 g of a.s./ha, application at 3-leaf stage): 60%
- Herbicidal action (%) against Lolium multiflorum ([1]; wheat field trial, 750 g of a.s./ha, application at 3-leaf stage): 83%

SMILES: CCC(CC)Nc1c([N+](=O)[O-])cc(C)c(C)c1[N+](=O)[O-] [(B1.1.5), pendimethalin]
- Herbicidal action (%) against Lamium purpureum ([3]; 960 g of a.s./ha): 75%

SMILES: Cc1cc(Cl)ccc1OCC(=O)O [(B4.2.4), MCPA]
- Herbicidal action (%) against Ambrosia maritima ([4]; 500 g of a.s./ha): 0%

SMILES: CCOC(=O)C(Cl)Cc1cc(-n2nc(C)n(C(F)F)c2=O)c(F)cc1Cl (centres unmarked) [(B4.4.1), carfentrazone-ethyl]
- Herbicidal action (%) against Galium aparine ([2]; 10 g of a.s./ha): 45%
- Herbicidal action (%) against Galium aparine ([2]; 20 g of a.s./ha): 55%

SMILES: Cc1cc(Cl)ccc1O[C@@H](C)C(=O)O [(B4.2.2), CMPP-P]
- Herbicidal action (%) against Galium aparine ([2]; 750 g of a.s./ha): 73%

SMILES: CCOC(=O)COc1cc(-c2nn(C)c(OC(F)F)c2Cl)c(F)cc1Cl [(B4.4.2), pyraflufen-ethyl]
- Herbicidal action (%) against Digitaria Sanguinalis ([5]; 10 g of a.s./ha): 0%
- Herbicidal action (%) against Alopecurus myosuroides ([6]; 10 g of a.s./ha): 0%

SMILES: COC(=O)c1ccc(NS(C)(=O)=O)cc1S(=O)(=O)NC(=O)Nc1nc(OC)cc(OC)n1 [(B2.3), methyl 4-methylsulfonylamino-2-(4,6-dimethoxypyrimidin-2-ylcarbamoylsulfamoyl)benzoate]
- pest or weed control at 5 g/ha ([1]; Lolium multiflorum, wheat field trial, 5 g of a.s./ha, application at 3-leaf stage, scoring after application, read-out: Herbicidal action (%) against Lolium multiflorum): 65%

SMILES: C#CCOC(=O)[C@@H](C)Oc1ccc(Oc2ncc(Cl)cc2F)cc1 [(B1.2.2), clodinafop-propargyl]
- pest or weed control at 50 g/ha ([1]; Lolium multiflorum, wheat field trial, 50 g of a.s./ha, application at 3-leaf stage, scoring after application, read-out: Herbicidal action (%) against Lolium multiflorum): 73%

SMILES: CC(C)c1ccc(NC(=O)N(C)C)cc1 [(B1.1.1), isoproturon]
- pest or weed control at 1500 g/ha ([1]; Lolium multiflorum, wheat field trial, 1500 g of a.s./ha, application at 3-leaf stage, scoring after application, read-out: Herbicidal action (%) against Lolium multiflorum): 55%

SMILES: O=C(Nc1ccc(F)cc1F)c1cccnc1Oc1cccc(C(F)(F)F)c1 [Diflu, diflufenican]
- pest or weed control at 150 g/ha ([1]; Lolium multiflorum, wheat field trial, 150 g of a.s./ha, application at 3-leaf stage, scoring after application, read-out: Herbicidal action (%) against Lolium multiflorum): 35%

SMILES: Nc1c(Cl)c(F)nc(OCC(=O)O)c1Cl [(B4.2.5), fluroxypyr]
- Herbicidal action (%) against Galium aparine ([2]; 120 g of a.s./ha): 75%

SMILES: CCc1cnc(C2=NC(C)(C(C)C)C(=O)N2)c(C(=O)O)c1 (centres unmarked) [(A3.2), imazethapyr]
- pest or weed control at 70 g/ha ([1]; Lolium multiflorum, wheat field trial, 70 g of a.s./ha, application at 3-leaf stage, scoring after application, read-out: Herbicidal action (%) against Lolium multiflorum): 0%

SMILES: CCOC(=O)/C(Cl)=C/c1cc(N2C(=O)C3=C(CCCC3)C2=O)ccc1Cl [(B4.1.6), cinidon-ethyl]
- Herbicidal action (%) against Galium aparine ([2]; 35 g of a.s./ha): 65%

SMILES: COC(=O)c1ccccc1S(=O)(=O)NC(=O)Nc1nc(C)nc(OC)n1 [(B2.1), metsulfuron-methyl]
- Herbicidal action (%) against Lamium purpureum ([3]; 3 g of a.s./ha): 75%

SMILES: COC(=O)c1ccccc1S(=O)(=O)NC(=O)N(C)c1nc(C)nc(OC)n1 [(B4.1.1), tribenuron-methyl]
- Herbicidal action (%) against Lamium purpureum ([3]; 15 g of a.s./ha): 68%

SMILES: N#Cc1cc(Br)c(O)c(Br)c1 [(B4.3.1), bromoxynil]
- Herbicidal action (%) against Lamium purpureum ([3]; 180 g of a.s./ha): 55%
- Herbicidal action (%) against Lamium purpureum ([3]; 360 g of a.s./ha): 83%

SMILES: CC(C)N(C(=O)COc1nnc(C(F)(F)F)s1)c1ccc(F)cc1 [(B1.1.3), fluthiamide]
- pest or weed control at 180 g/ha ([1]; Lolium multiflorum, wheat field trial, 180 g of a.s./ha, application at 3-leaf stage, scoring after application, read-out: Herbicidal action (%) against Lolium multiflorum): 25%

SMILES: CP(=O)(O)CCC(N)C(=O)O (centres unmarked) [(A1.2), glufosinate-ammonium]
- Herbicidal action (%) against Digitaria Sanguinalis ([5]; 200 g of a.s./ha): 45%
- Herbicidal action (%) against Digitaria Sanguinalis ([5]; 400 g of a.s./ha): 90%
- Herbicidal action (%) against Digitaria Sanguinalis ([5]; 600 g of a.s./ha): 99%
- Herbicidal action (%) against Alopecurus myosuroides ([6]; 200 g of a.s./ha): 55%
- Herbicidal action (%) against Alopecurus myosuroides ([6]; 400 g of a.s./ha): 83%
- Herbicidal action (%) against Alopecurus myosuroides ([6]; 600 g of a.s./ha): 93%
- Herbicidal action (%) against Galium aparine ([2]; 100 g of a.s./ha): 0%
- Herbicidal action (%) against Galium aparine ([2]; 200 g of a.s./ha): 0%
- Herbicidal action (%) against Galium aparine ([2]; 300 g of a.s./ha): 0%
- Herbicidal action (%) against Lamium purpureum ([3]; 200 g of a.s./ha): 8%
- Herbicidal action (%) against Lamium purpureum ([3]; 330 g of a.s./ha): 35%
- pest or weed control at 200 g/ha [1, 7]: 0%
- pest or weed control at 330 g/ha [1, 7]: 15%
- pest or weed control at 500 g/ha [1, 7]: 78%
- Herbicidal action (%) against Ambrosia maritima ([4]; 200 g of a.s./ha): 58%
- Herbicidal action (%) against Ambrosia maritima ([4]; 400 g of a.s./ha): 100%
- Herbicidal action (%) against Ambrosia maritima ([4]; 600 g of a.s./ha): 100%
